From paper PMC12090182, “Repurposing of the RIPK1-Selective Benzo[1,4]oxazepin-4-one Scaffold for the Development of a Type III LIMK1/2 Inhibitor” (ACS Chemical Biology, 2025)

Test system: MRC-9 cells
Assay: Multiplex high-content viability assessment
Type: cell-based
Conditions: for Cell count normalized to cells treated with DMSO control / Cell count per well / Population Fragmented Nuclei (%) / Population Healthy Nuclei (%) / Population Pyknosed Nuclei (%) / Population apoptotic cell (%) / Population cell that influence microtubule strucutre (%) / Population with increased mitochondrial mass (%) / Population with membrane disruption (%): human fibroblast
Method: To assess the influence on cell health, a high-content screening in living cells called the multiplex high-content assay, as described previously by Tjaden et al., was performed.[38] In brief, HEK293T (ATCC CRL-1573) and U2OS (ATCCHTB-96) were cultured in DMEM plus L-glutamine (high glucose) supplemented by 10% FBS (Gibco) and penicillin/streptomycin (Gibco). MRC-9 fibroblasts ([…]) were cultured in EMEM plus L-glutamine supplemented by 10% FBS (Gibco) and penicillin/streptomycin (Gibco). Cells were seeded at a density of 1250 cells per well in a 384-well plate in a culture medium (cell culture microplate, PS, f-bottom, μClear, 781091, Greiner), with a volume of 50 μL per well. All outer wells were filled with 100 μL of PBS buffer (Gibco). […] The cell shape and fluorescence were measured before treatment and 12, 24, and 48 h after compound treatment using the CQ1 high-content confocal microscope (Yokogawa, Musashino, Japan). […] The compounds were tested at 1 and 10 μM, respectively. Acquired images of the cells were processed using Yokogawa CellPathfinder software (v3.04.02.02). […] Results were normalized to cells exposed to 0.1% DMSO. All compounds were tested in biological duplicates, and SEM (standard error of mean) was calculated of biological duplicates.

## CN1C(=O)[C@@H](N2CCc3c(C(N)=O)nn(Cc4ccccc4)c3C2=O)COc2ccccc21 [Compound 11]
1 µM, 0 h, replicate 1
  Cell count normalized to cells treated with DMSO control: 1.108
  Cell count per well: 166
  Population Fragmented Nuclei (%): 16.15%
  Population Healthy Nuclei (%): 68.94%
  Population Pyknosed Nuclei (%): 14.91%
  Population apoptotic cell (%): 29.17%
  Population cell that influence microtubule strucutre (%): 21.62%
  Population with increased mitochondrial mass (%): 7.21%
  Population with membrane disruption (%): 0.00%
1 µM, 0 h, replicate 2
  Cell count normalized to cells treated with DMSO control: 0.9027
  Cell count per well: 161
  Population Fragmented Nuclei (%): 20.65%
  Population Healthy Nuclei (%): 50.97%
  Population Pyknosed Nuclei (%): 28.39%
  Population apoptotic cell (%): 29.55%
  Population cell that influence microtubule strucutre (%): 43.04%
  Population with increased mitochondrial mass (%): 7.59%
  Population with membrane disruption (%): 5.06%
1 µM, 12 h, replicate 1
  Cell count normalized to cells treated with DMSO control: 1.109
  Cell count per well: 167
  Population Fragmented Nuclei (%): 8.64%
  Population Healthy Nuclei (%): 75.31%
  Population Pyknosed Nuclei (%): 16.05%
  Population apoptotic cell (%): 34.62%
  Population cell that influence microtubule strucutre (%): 20.49%
  Population with increased mitochondrial mass (%): 3.28%
  Population with membrane disruption (%): 0.82%
1 µM, 12 h, replicate 2
  Cell count normalized to cells treated with DMSO control: 0.8825
  Cell count per well: 147
  Population Fragmented Nuclei (%): 22.70%
  Population Healthy Nuclei (%): 46.81%
  Population Pyknosed Nuclei (%): 30.50%
  Population apoptotic cell (%): 34.88%
  Population cell that influence microtubule strucutre (%): 56.06%
  Population with increased mitochondrial mass (%): 10.61%
  Population with membrane disruption (%): 4.55%
1 µM, 24 h, replicate 1
  Cell count normalized to cells treated with DMSO control: 1.1208
  Cell count per well: 169
  Population Fragmented Nuclei (%): 16.36%
  Population Healthy Nuclei (%): 70.30%
  Population Pyknosed Nuclei (%): 13.33%
  Population apoptotic cell (%): 45.45%
  Population cell that influence microtubule strucutre (%): 18.10%
  Population with increased mitochondrial mass (%): 3.45%
  Population with membrane disruption (%): 1.72%
1 µM, 24 h, replicate 2
  Cell count normalized to cells treated with DMSO control: 0.8977
  Cell count per well: 148
  Population Fragmented Nuclei (%): 25.34%
  Population Healthy Nuclei (%): 47.26%
  Population Pyknosed Nuclei (%): 27.40%
  Population apoptotic cell (%): 50.00%
  Population cell that influence microtubule strucutre (%): 57.97%
  Population with increased mitochondrial mass (%): 11.59%
  Population with membrane disruption (%): 5.80%
1 µM, 48 h, replicate 1
  Cell count normalized to cells treated with DMSO control: 1.035
  Cell count per well: 157
  Population Fragmented Nuclei (%): 12.50%
  Population Healthy Nuclei (%): 75.00%
  Population Pyknosed Nuclei (%): 12.50%
  Population apoptotic cell (%): 68.42%
  Population cell that influence microtubule strucutre (%): 16.67%
  Population with increased mitochondrial mass (%): 3.51%
  Population with membrane disruption (%): 0.88%
1 µM, 48 h, replicate 2
  Cell count normalized to cells treated with DMSO control: 0.8596
  Cell count per well: 140
  Population Fragmented Nuclei (%): 27.61%
  Population Healthy Nuclei (%): 55.22%
  Population Pyknosed Nuclei (%): 17.16%
  Population apoptotic cell (%): 39.13%
  Population cell that influence microtubule strucutre (%): 47.30%
  Population with increased mitochondrial mass (%): 9.46%
  Population with membrane disruption (%): 2.70%
1 μM, MRC-9
  cytotoxicity: no cytotoxicity
10 µM, 0 h, replicate 1
  Cell count normalized to cells treated with DMSO control: 0.9342
  Cell count per well: 140
  Population Fragmented Nuclei (%): 19.23%
  Population Healthy Nuclei (%): 57.69%
  Population Pyknosed Nuclei (%): 23.08%
  Population apoptotic cell (%): 33.33%
  Population cell that influence microtubule strucutre (%): 24.00%
  Population with increased mitochondrial mass (%): 6.67%
  Population with membrane disruption (%): 1.33%
10 µM, 0 h, replicate 2
  Cell count normalized to cells treated with DMSO control: 0.8634
  Cell count per well: 154
  Population Fragmented Nuclei (%): 23.88%
  Population Healthy Nuclei (%): 43.28%
  Population Pyknosed Nuclei (%): 32.84%
  Population apoptotic cell (%): 40.91%
  Population cell that influence microtubule strucutre (%): 39.66%
  Population with increased mitochondrial mass (%): 15.52%
  Population with membrane disruption (%): 8.62%
10 µM, 12 h, replicate 1
  Cell count normalized to cells treated with DMSO control: 0.8966
  Cell count per well: 135
  Population Fragmented Nuclei (%): 18.46%
  Population Healthy Nuclei (%): 53.08%
  Population Pyknosed Nuclei (%): 28.46%
  Population apoptotic cell (%): 67.57%
  Population cell that influence microtubule strucutre (%): 69.57%
  Population with increased mitochondrial mass (%): 15.94%
  Population with membrane disruption (%): 1.45%
10 µM, 12 h, replicate 2
  Cell count normalized to cells treated with DMSO control: 0.8165
  Cell count per well: 136
  Population Fragmented Nuclei (%): 28.57%
  Population Healthy Nuclei (%): 55.46%
  Population Pyknosed Nuclei (%): 15.97%
  Population apoptotic cell (%): 47.37%
  Population cell that influence microtubule strucutre (%): 83.33%
  Population with increased mitochondrial mass (%): 30.30%
  Population with membrane disruption (%): 7.58%
10 µM, 24 h, replicate 1
  Cell count normalized to cells treated with DMSO control: 0.8754
  Cell count per well: 132
  Population Fragmented Nuclei (%): 17.21%
  Population Healthy Nuclei (%): 55.74%
  Population Pyknosed Nuclei (%): 27.05%
  Population apoptotic cell (%): 60.61%
  Population cell that influence microtubule strucutre (%): 72.06%
  Population with increased mitochondrial mass (%): 17.65%
  Population with membrane disruption (%): 1.47%
10 µM, 24 h, replicate 2
  Cell count normalized to cells treated with DMSO control: 0.8068
  Cell count per well: 133
  Population Fragmented Nuclei (%): 30.89%
  Population Healthy Nuclei (%): 56.10%
  Population Pyknosed Nuclei (%): 13.01%
  Population apoptotic cell (%): 56.25%
  Population cell that influence microtubule strucutre (%): 65.22%
  Population with increased mitochondrial mass (%): 20.29%
  Population with membrane disruption (%): 5.80%
10 µM, 48 h, replicate 1
  Cell count normalized to cells treated with DMSO control: 0.8898
  Cell count per well: 135
  Population Fragmented Nuclei (%): 23.81%
  Population Healthy Nuclei (%): 54.76%
  Population Pyknosed Nuclei (%): 21.43%
  Population apoptotic cell (%): 85.19%
  Population cell that influence microtubule strucutre (%): 56.52%
  Population with increased mitochondrial mass (%): 14.49%
  Population with membrane disruption (%): 0.00%
10 µM, 48 h, replicate 2
  Cell count normalized to cells treated with DMSO control: 0.8904
  Cell count per well: 145
  Population Fragmented Nuclei (%): 38.30%
  Population Healthy Nuclei (%): 58.16%
  Population Pyknosed Nuclei (%): 3.55%
  Population apoptotic cell (%): 60.00%
  Population cell that influence microtubule strucutre (%): 71.95%
  Population with increased mitochondrial mass (%): 18.29%
  Population with membrane disruption (%): 3.66%
